In ChEMBL document CHEMBL4346736, “Anti-proliferative activity and structure-activity relationship of honokiol derivatives” (Bioorg Med Chem, 2019):

Assay: Partition coefficient, log P of the compound
Assay type: physicochemical
Settings: octanol/water

| logP | Structure (SMILES) |
| --- | --- |
| 3.76 | C=CCc1cc(O)c(O)c(-c2cc(CC=C)cc(O)c2O)c1 |
| 7.76 | C=CCc1cc(/C=N/Nc2ccccc2)c(O)c(-c2ccc(O)c(CC=C)c2)c1 |
| 6.67 | C=CCc1cc(/C=N\C2CCCCC2)c(O)c(-c2ccc(O)c(CC=C)c2)c1 |
| 3.74 | C=CCc1cc(/C=C2\SC(=O)NC2=O)c(O)c(-c2cc(/C=C3\SC(=O)NC3=O)c(O)c(CC=C)c2)c1 |
| 7.61 | C=CCc1cc(-c2ccc(OC)c(CC=C)c2)c(O)c(-c2ccc(OC)c(CC=C)c2)c1 |
| 7.22 | C=CCc1cc(/C=N\CCCCCC)c(O)c(-c2ccc(O)c(CC=C)c2)c1 |
| 5.36 | C/C=C/c1ccc(O)c(-c2cc(/C=C/C)ccc2O)c1 |
| 4.36 | C=CCc1cc(-c2ccc3c(c2)OCO3)ccc1O |
| 5.35 | C=CCc1cc(/C=N/O)c(O)c(-c2ccc(O)c(CC=C)c2)c1 |
| 4.82 | C=CCc1ccc(Oc2cc(CC=C)ccc2O)cc1 [ISOMAGNOLOL] |
| 5.21 | C=CCc1cc(-c2ccc(O)c(CC=C)c2)ccc1O |
| 5.23 | C=CCc1ccc(O)c(-c2cc(/C=C(\C#N)C(=O)OCC)c(O)c(CC=C)c2)c1 |
| 5.38 | C=CCc1cc(Cc2ccc(O)c(CC=C)c2)ccc1O |
| 5.28 | C=CCc1cc(-c2ccc(OC)c(CC=C)c2)ccc1O |
| 4.77 | C=CCc1ccc(O)c(-c2cccc(CC=C)c2O)c1 |
| 4.78 | C=CCc1ccc(O)c(-c2cc(CC=C)c3oncc3c2)c1 |
| 5 | C=CCc1cc(C=O)c(OC)c(-c2ccc(O)c(CC=C)c2)c1 |
| 3.98 | C=CCc1cc(-c2ccc3c(c2)OCCO3)ccc1O |
| 5.81 | C=CCc1cc(Br)c(O)c(-c2ccc(OC)c(CC=C)c2)c1 |
| 5.05 | C=CCc1cc(-c2cccc(CC=C)c2O)ccc1OC |
| 4.48 | C=CCc1cc(/C=C2\SC(=O)NC2=O)c(O)c(-c2ccc(O)c(CC=C)c2)c1 |

| logP | Structure (SMILES) |
| --- | --- |
| 5.54 | C=CCc1cc(/C=N\c2ccc(N)cc2)c(O)c(-c2ccc(O)c(CC=C)c2)c1 |
| 5.35 | C=CCc1ccc(OC)c(-c2cc(CC=C)ccc2OC)c1 |
| 4.75 | C=CCc1cccc(-c2cccc(CC=C)c2O)c1O |
| 6.47 | C=CCc1cc(/C=N\c2ccccc2)c(O)c(-c2ccc(O)c(CC=C)c2)c1 |
| 4.8 | C=CCc1ccc(O)c(-c2cc(CC=C)ccc2O)c1 [MAGNOLOL] |
| 5.49 | C=CCc1cc(/C=N/O)c(O)c(-c2cc(/C=N/O)c(O)c(CC=C)c2)c1 |
| 4.05 | C=CCc1cc(-c2ccc3c(c2)OCCO3)ccc1OC |
| 3.33 | C=CCc1cc(CO)c(O)c(-c2cc(CO)c(O)c(CC=C)c2)c1 |
| 4.98 | C=CCc1cc(-c2cccc(CC=C)c2O)ccc1O |
| 5.82 | C=CCc1cc(C=O)c(OCC)c(-c2ccc(OCC)c(CC=C)c2)c1 |
| 6.74 | C=CCc1cc(/C(CC)=C(\CC)c2ccc(O)c(CC=C)c2)ccc1O |
| 5.41 | C=CCc1cc(C(c2ccc(O)c(CC=C)c2)c2ccccn2)ccc1O |
| 5.44 | C=CCc1cc(/C=C(\C#N)C(=O)OCC)c(O)c(-c2ccc(O)c(CC=C)c2)c1 |
| 4.34 | COc1ccc(-c2cc(/C=C/C=O)ccc2O)cc1/C=C/C=O |
| 6.97 | C=CCc1cc(C2(c3ccc(O)c(CC=C)c3)CCCCC2)ccc1O |
| 3.57 | C=CCc1cc(/C=N/CCN)c(O)c(-c2ccc(O)c(CC=C)c2)c1 |
| 5.28 | C=CCc1ccc(OC)c(-c2ccc(O)c(CC=C)c2)c1 |
| 4.27 | C=CCc1ccc(O)c(-c2cc(/C=C3\SC(=O)NC3=O)c(O)c(CC=C)c2)c1 |
| 5.14 | C=CCc1ccc(O)c(-c2cc(/C=N/O)c(O)c(CC=C)c2)c1 |
| 5.07 | C=CCc1cc(C=O)c(OC)c(-c2ccc(OC)c(CC=C)c2)c1 |

| Structure (SMILES) | logP |
| --- | --- |
| C=CCc1ccc(O)c(-c2ccc(OCC)c(CC=C)c2)c1 | 5.45 |
| CCCc1ccc(O)c(-c2cc(CCC)ccc2O)c1 | 5.76 |
| Oc1ccccc1-c1ccccc1O | 3.2 |
| C=CCc1cc(C(=C(Cl)Cl)c2ccc(O)c(CC=C)c2)ccc1O | 6.17 |
| C=CCc1ccc(OCC)c(-c2ccc(O)c(CC=C)c2)c1 | 5.66 |
| C=CCc1cc(C(C)(C)c2ccc(O)c(CC=C)c2)ccc1O | 5.8 |
